Results taken from paper PMC7155171, “Probing the Open Global Health Chemical Diversity Library for Multistage-Active Starting Points for Next-Generation Antimalarials” (ACS Infectious Diseases, 2020).
Like-named read-outs stand apart in the source and are kept apart here.

Assays:
[1] = tested on: P. falciparum Dd2 (PfLuc) line expressing firefly luciferase, asexual blood stage; experiment: microbe, parasite or virus in culture; format: cell-based, Plasmodium falciparum; details: Plasmodium falciparum
P. falciparum Dd2 = experiment: SYBR green I asexual blood stage proliferation assay (96 h); format: cell-based, Plasmodium falciparum; details: for IC50 / Emax: Plasmodium falciparum
[2] = DD2, read-out: CDD P. falciparum Luciferase ABS 11-pt Reconfirmation Dose Response (48hr): IC50 (μM), 11-pt dose response, 48hr
[3] = DD2, 8-pt dose response, 96hr, read-out: CDD P. falciparum Luciferase ABS 8-pt Reconfirmation Dose Response (96hr): IC50
[4] = DD2, 8-pt dose response, 96hr, read-out: CDD P. falciparum Luciferase ABS 8-pt Reconfirmation Dose Response (96hr): Maximum inhibition (%)
[5] = DD2, 11-pt dose response, 48hr, read-out: CDD P. falciparum Luciferase ABS 11-pt Reconfirmation Dose Response (48hr): Maximum inhibition (%)
[6] = DD2, 11-pt dose response, 96hr, read-out: CDD P. falciparum Luciferase ABS 11-pt Reconfirmation Dose Response (96hr): IC50
[7] = DD2, 11-pt dose response, 96hr, read-out: CDD P. falciparum Luciferase ABS 11-pt Reconfirmation Dose Response (96hr): Maximum inhibition (%)
[8] = DD2, Sybr Green I, 11-pt dose response, 96hr, read-out: CDD P. falciparum Sybr Green I ABS 11-pt Reconfirmation Dose Response (96hr): IC50
[9] = DD2, Sybr Green I, 11-pt dose response, 96hr, read-out: CDD P. falciparum Sybr Green I ABS 11-pt Reconfirmation Dose Response (96hr): Maximum inhibition (%)
[10] = DD2, read-out: P. falciparum Luciferase ABS 11-pt Reconfirmation Dose Response (48hr): IC50, 11-pt dose response, 48hr
[11] = DD2, 8-pt dose response, 96hr, read-out: P. falciparum Luciferase ABS 8-pt Reconfirmation Dose Response (96hr): IC50
[12] = DD2, 8-pt dose response, 96hr, read-out: P. falciparum Luciferase ABS 8-pt Reconfirmation Dose Response (96hr): Maximum inhibition (%)
[13] = DD2, 11-pt dose response, 96hr, read-out: P. falciparum Luciferase ABS 11-pt Reconfirmation Dose Response (96hr): IC50
[14] = DD2, 11-pt dose response, 96hr, read-out: P. falciparum Luciferase ABS 11-pt Reconfirmation Dose Response (96hr): Maximum inhibition (%)
[15] = DD2, 11-pt dose response, 96hr, read-out: P. falciparum Sybr Green I ABS 11-pt Reconfirmation Dose Response (96hr): IC50
[16] = DD2, 11-pt dose response, 96hr, read-out: P. falciparum Sybr Green I ABS 11-pt Reconfirmation Dose Response (96hr): Maximum inhibition (%)
[17] = DD2, 11-pt dose response, 48hr, read-out: P. falciparum Luciferase ABS 11-pt Reconfirmation Dose Response (48hr): Maximum inhibition (%)

Compound	IC50 [1, 2] [µM]	IC50 [1, 3] [µM]	Emax [1, 4] [%]	Emax [1, 5] [%]	IC50 [1, 6] [µM]	Emax [1, 7] [%]	IC50 (P. falciparum Dd2; [8]) [nM]	Emax (P. falciparum Dd2; [9]) [%]	IC50 [1, 11] [µM]	Emax [1, 12] [%]	also measured
COc1cc(CNCC(O)c2ccc(F)c(F)c2)cc2c1OCO2 (stereo not shown) [DDD00408586]	2.05	0.55	90.7	96.5	1.22	99.5	1890	97.2			
CC[C@H]1CN2CC[C@H]1C[C@@H]2CNCc1ccc(OC(F)(F)F)cc1 [DDD01025218]	2.91	1.07	92.1	93	> 1.39	100	4160	89.4			
COc1ccc2[nH]c(C[C@@H]3C[C@@H](C(C)C)[C@H](CN(C)C)C=C3C)nc2c1 [DDD01025345]	12	0.59	88.6	66.8	1.53	91.5	3630	67.2			
CCC1CN(CC(=O)NCCN2CCCCC2)c2ccccc2S1 (stereo not shown) [DDD01025850]	5.56	1.1	87.2	55.4	2.56	83.2	7990	74.7			
CN1CC[C@H](N(Cc2ccccc2)Cc2ccccc2)C[C@H](O)C1 [DDD01026217]	> 4.16	0.91	80.7	69.3	> 4.16	93.7	7310	73.4			
Cc1ccc(C(CCNCCCN(C)C)C2CCOC(C)(C)C2)cc1 (stereo not shown) [DDD01026662]	7.59	0.76	96.2	95.3	5.89	98.8	1570	97.5			
CN(C)CCCNCCC(Cc1ccccc1)C1CCOC(C)(C)C1 (stereo not shown) [DDD01026664, CN(C)CCCNCCC(Cc1ccccc1)C1CCOC(C)(C)C1]											IC50 ([1]; DD2, read-out: CDD P. falciparum Luc 11pt dose response (96hr, n=2): IC50 (μM), 96hr, 11-point, n=2): 0.11 µM; IC50 ([1]; DD2, read-out: CDD P. falciparum Luciferase 11pt dose response (48hr, n=2): IC50 (μM), 48hr, 11-point, n=2): 0.405 µM; Emax ([1]; DD2, 48hr, 11-point, read-out: CDD P. falciparum Luciferase ABS 11-pt Reconfirmation Dose Response (48hr): Maximum inhibition (%)): 98.1%; Emax ([1]; DD2, 96hr, 11-point, read-out: CDD P. falciparum Luciferase ABS 11-pt Reconfirmation Dose Response (96hr): Maximum inhibition (%)): 101%; CDD P. falciparum Sybr Green I ABS Dd2 Dose Response: Maximum measured (%) (P. falciparum Dd2; Dd2, 96 h): 98.8%; IC50 (P. falciparum Dd2; DD2, 96 h, read-out: CDD P. falciparum Sybr Green I ABS Dd2 Dose Response: IC50): 251 nM
Cc1ncc(CNCCO)c2cc(C(=O)c3ccc(Br)cc3)oc12 [DDD01027290]									1.35	90.8	IC50 [1, 10]: > 12.5 µM; IC50 [1, 13]: 1.63 µM; Emax [1, 14]: 98.3%; IC50 (P. falciparum Dd2; [15]): 3320 nM; Emax (P. falciparum Dd2; [16]): 63.7%
O=S(=O)(NCC(c1ccsc1)N1CCCCCC1)c1cccs1 (stereo not shown) [DDD01027501]									1.94	83.7	IC50 [1, 10]: > 12.5 µM; Emax [1, 17]: 44%; IC50 [1, 13]: 8.75 µM; IC50 (P. falciparum Dd2; [15]): 7790 nM; Emax (P. falciparum Dd2; [16]): 69.9%
Cc1cc(C)c(N(CC(O)CNCc2ccccc2)S(C)(=O)=O)c(C)c1 (stereo not shown) [DDD01027603]	2.17	0.51	90.1	75	0.829	90.9	4910	81.7			
Cn1cc(CN2CCCC(CCc3ccc(F)cc3)C2)cn1 (stereo not shown) [DDD01246631]									1.75	84.6	
CC(C)(C)n1cc(C2=CCN(CCN3CCCCCC3)CC2)cn1 [DDD01248990]									1.53	78.1	
COc1ccc2[nH]c(CNc3cc(C4CCNCC4)nc(C)n3)cc2c1 [DDD01249030]									1.88	88	
CN1CCC(N(C)C[C@H]2CC[C@@H](Cc3ccc4occc4c3)O2)CC1 [DDD01250070]									1.57	82.8	
C=Cc1cccc(CN2C[C@@H](CN(C)CC)[C@@H](CO)C2)c1 [DDD01250237]									1.27	83.3	
C[C@@H]1CN(C(=O)C2CCS(=O)(=O)CC2)CC[C@@]1(O)C1CCOCC1 [DDD01250493]									1.67	82.2	
O=C(CCN1CCCC(CO)(CC2CC2)C1)NCc1cccc(Cl)c1 (stereo not shown) [DDD01250518]									1.83	81.8	
COc1ccccc1CCN1CCCC(CN(C)Cc2ccc(C)o2)C1 (stereo not shown) [DDD01250738]									1.36	86.1	
COc1ccnc(CN2CCCC(CCc3ccccc3)C2)c1OC (stereo not shown) [DDD01250826]									1.26	92.5	IC50 [1, 10]: 1.41 µM; Emax [1, 17]: 93%; IC50 [1, 13]: 0.447 µM; Emax [1, 14]: 99.3%
Cn1cc(CN2CCCC(CCc3ccc(F)cc3F)C2)cn1 (stereo not shown) [DDD01251707]									1.69	81	
